The results in this text go back to publication PMC2680211 (Bioorganic & medicinal chemistry, 2008).

In this experiment the target is hKOPR (Homo sapiens, UniProt P41145). The class given is biochemical.
hKOPR, sequence (P41145 whole entry): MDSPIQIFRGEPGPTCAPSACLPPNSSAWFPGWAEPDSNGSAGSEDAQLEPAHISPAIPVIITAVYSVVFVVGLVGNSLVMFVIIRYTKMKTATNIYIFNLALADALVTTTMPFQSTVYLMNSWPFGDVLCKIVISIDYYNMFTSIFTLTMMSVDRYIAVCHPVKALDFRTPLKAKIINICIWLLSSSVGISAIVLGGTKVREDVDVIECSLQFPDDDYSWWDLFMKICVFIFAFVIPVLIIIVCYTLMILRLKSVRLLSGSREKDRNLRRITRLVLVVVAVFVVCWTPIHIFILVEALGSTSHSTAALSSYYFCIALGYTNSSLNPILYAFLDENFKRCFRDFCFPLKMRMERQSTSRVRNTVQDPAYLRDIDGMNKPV

Consider `COC(=O)[C@@H]1C[C@H](OC(C)=O)C(=O)[C@H]2[C@@]1(C)CC[C@H]1C(=O)O[C@@H](c3ccoc3)C[C@]21C` [Compound 6, 12-epi-Salvinorin A], for which the “KOPR agonism in the [35S]GTPγS functional assay (in words)” value (shortened to “KOPR agonism”) was “partial agonist effects”, the “KOPR antagonism: effect on U50,488-induced [35S]GTPγS binding” value was “partially blocked the effect of U50,488” and the “reduction of [35S]GTPγS binding induced by U50,488” value is “significantly reduced”.
As for `COC(=O)[C@@H]1C[C@H](OC(C)=O)C(=O)[C@H]2[C@@]1(C)CC[C@H]1C(=O)O[C@H](COC(C)=O)C[C@]21C` [Compound 11], the “KOPR agonism” value is recorded as “weak KOPR agonist”.
As to `COC(=O)[C@@H]1C[C@H](OC(C)=O)C(=O)[C@H]2[C@@]1(C)CC[C@H]1C(=O)O[C@H](C(=O)O)C[C@]21C` [Compound 7], the “KOPR agonism” value was “weak agonist”.
Same read-out and setting: the same measure for `COC(=O)[C@@H]1C[C@H](OC(C)=O)C(=O)[C@H]2[C@@]1(C)CC[C@H]1C(=O)O[C@H](c3ccoc3Br)C[C@]21C` [Compound 2, 16-bromosalvinorin A]: “highly potent KOPR agonist”.
